In patent EP4745138A1, “THIO-GLUTARIMIDO ISOINDOLINONE DERIVATIVE, BIFUNCTIONAL PROTEIN DEGRADER CONTAINING SAME, AND USES THEREOF” (Gluetacs Therapeutics (Shanghai) Co., Ltd., priority 2023, dated 2025):
Where two headings read alike, the source gives them in different places.

Tests used:
MV-4-11 = test: Tumor cell proliferation inhibition (CellTiter-Meiluncell Luminescent Cell Viability Assay); assay type: cell-based; settings: Homo sapiens, 96 hours; for inhibition at 0.01 µM: MV4-11, 10 nM, read-out: Inhibition Rate at 10 nM (%); for inhibition at 0.5 µM: MV4-11, 500 nM, read-out: Inhibition Rate at 500 nM (%)
Experimental: The tumor cells used herein were cultured in a cell culture medium listed in table 3 at 37°C in an incubator with 5% CO2. Prior to experimentation, all cell lines used were correctly identified by STR profiling, and tested negative for mycoplasma contamination using a mycoplasma detection kit through routine screenings. Table 3. Tumor cells and cell culture medium used in the present disclosure
The IC50 values of the compounds of the present disclosure (including the compounds in Table 1, Table 2, and Examples) were determined using the CellTiter-Meiluncell Luminescent Cell Viability Assay Kit from Dalian Meilun Biotech Co., Ltd. The detailed procedure is as follows: Tumor cells were seeded in 96-well cell culture plates at the densities specified in Table 4. On the following day, the test compounds of the present disclosure were subjected to serial dilution. […] Subsequently, 0.5 µL of the test compound dilution was transferred into the 96-well plate containing the cells, with each well containing 100 µL of cell culture medium. […] Into the 96-well plate, the diluted test compounds and corresponding detection reagents were added, resulting in final test compound concentrations of 500 nM and 10 nM, respectively. The experimental procedure is described below using the diluted 2 µM test compound as an example.
0.5 µL of the aforementioned diluted compound of the present disclosure (including the compounds in Table 1, Table 2, and Examples) was added to the seeded cells in 100 µL of medium, yielding a final test compound concentration of 10 nM. After the cells were treated with the compounds of the present disclosure for a specified period, the cell viability assay reagent was added to the culture medium according to the kit's instructions to determine cell viability. […] All controls were treated using the same procedure as the compounds of the present disclosure. […] Seeding protocol and treatment time for tumor cells

[1] = biological target: T1, human Cereblon WT GST-tagged protein (Homo sapiens, UniProt Q96SW2); test: CRBN-binding affinity, HTRF (CEREBLON BINDING kit); settings: for inhibition at 0.5 µM: read-out: Inhibition Rate at 0.5 µM (%); for inhibition at 2 µM: read-out: Inhibition Rate at 2 µM (%)
T1 construct: purchased CISBIO 64BDCRBNPEH
Text: The CEREBLON BINDING kits (specification: 10,000 tests; product number: Catalog # 64BDCRBNPEH; CISBIO company) was used to determine the CRBN binding ability of the compounds to be tested through a HTRF method (homogeneous time-resolved fluorescence). The specific methods are as follows: • 1. […] Specifically, diluent #9 (1X) solution was used as the diluent, and multiple concentration gradients were set. […] Into the 96-well plate, the diluted test compounds and corresponding detection reagents were added, resulting in final test compound concentrations of 2 µM and 0.5 µM, respectively. […] Then, 2.5 µL of human Cereblon WT GST-tagged protein solution was added to each well. Finally, 5 µL of the thoroughly mixed Thalidomide-Re reagent and GST Eu antibody working solution were added to each of the aforementioned wells. […] The blank control wells were sequentially added with 2.5 µL of diluent #9 (1X) solution, 2.5 µL of PROTAC binding buffer, and 5 µL of thoroughly mixed Thalidomide-Re reagent and GST Eu antibody working solution. • 4.

T1 sequence (Q96SW2 whole entry): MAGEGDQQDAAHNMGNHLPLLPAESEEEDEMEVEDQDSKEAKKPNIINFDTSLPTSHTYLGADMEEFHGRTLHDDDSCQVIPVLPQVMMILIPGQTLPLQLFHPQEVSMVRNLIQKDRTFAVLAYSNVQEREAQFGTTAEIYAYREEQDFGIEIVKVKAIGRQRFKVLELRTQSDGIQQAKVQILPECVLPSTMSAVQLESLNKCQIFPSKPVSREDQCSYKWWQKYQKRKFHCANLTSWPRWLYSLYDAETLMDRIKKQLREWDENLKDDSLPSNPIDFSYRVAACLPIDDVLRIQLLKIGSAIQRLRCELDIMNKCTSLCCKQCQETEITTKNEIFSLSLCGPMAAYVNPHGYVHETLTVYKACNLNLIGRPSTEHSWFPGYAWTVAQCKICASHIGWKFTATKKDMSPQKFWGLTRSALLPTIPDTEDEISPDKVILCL

`O=C1CCC(N2Cc3cc(CN4CCN(c5ccc6c(c5)nc(NC(=O)c5cccc(C(F)(F)F)c5)n6[C@H]5CC[C@@H](CO)CC5)CC4)ccc3C2=S)C(=O)N1` (relative stereo) [GT-05293, N-(5-(4-((2-(2,6-dioxopiperidin-3-yl)-1-thioxoisoindolin-5-yl)methyl)piperazin-1-yl)-1-((1s,4s)-4-(hydroxymethyl)cyclohexyl)-1H-benzo[d]imidazol-2-yl)-3-(trifluoromethyl)benzamide] showed an inhibition at 0.01 µM (MV-4-11; Table I-6, IRAK4 inhibitors) of 10 to 20%, an inhibition at 0.5 µM (MV-4-11; Table I-6, IRAK4 inhibitors) of 60 to 70% and an inhibition at 0.5 µM [1] of 40 to 53%. The inhibition at 2 µM [1] was 60 to 80%.

For `O=C1CCC(N2Cc3c(CN4CCC(n5cc(NC(=O)c6cnn7ccc(N8CCOCC8)nc67)c(C(F)F)n5)CC4)cccc3C2=S)C(=O)N1` (centres unmarked) [GT-05287, N-(3-(difluoromethyl)-1-(1-((2-(2,6-dioxopiperidin-3-yl)-1-thioxoisoindolin-4-yl)methyl)piperidin-4-yl)-1H-pyrazol-4-yl)-5-morpholinopyrazolo[1,5-a]pyrimidine-3-carboxamide], the inhibition at 0.01 µM (MV-4-11; Table I-6, IRAK4 inhibitors) was 10 to 20%, the inhibition at 0.5 µM (MV-4-11; Table I-6, IRAK4 inhibitors) was 70 to 80% and the inhibition at 0.5 µM [1] was 53 to 60%. For the same compound, the inhibition at 2 µM [1] was 80 to 100%.

For `O=C1CCC(N2Cc3c(CN4CCC(n5cc(NC(=O)c6cnn7ccc(N8C[C@H]9C[C@@H]8CO9)nc67)c(C(F)F)n5)CC4)cccc3C2=S)C(=O)N1` (stereo partly drawn) [GT-05288, 5-((1R,4R)-2-oxa-5-azabicyclo[2.2.1]heptan-5-yl)-N-(3-(difluoromethyl)-1-(1-((2-(2,6-dioxopiperidin-3-yl)-1-thioxoisoindolin-4-yl)methyl)piperidin-4-yl)-1H-pyrazol-4-yl)pyrazolo[1,5-a]pyrimidine-3-carboxamide], the inhibition at 0.01 µM (MV-4-11; Table I-6, IRAK4 inhibitors) was 0 to 5%, the inhibition at 0.5 µM (MV-4-11; Table I-6, IRAK4 inhibitors) was 40 to 50% and the inhibition at 0.5 µM [1] was 53 to 60%. It also gave an inhibition at 2 µM [1] of 80 to 100%.

With `Cc1cc(-c2nc(C(=O)Nc3cc4oc(N5CCN(Cc6cccc7c6CN(C6CCC(=O)NC6=O)C7=S)CC5)nc4nc3N3CC[C@@H](O)C3)co2)ccn1` (stereo partly drawn) [GT-05289, N-(2-(4-((2-(2,6-dioxopiperidin-3-yl)-1-thioxoisoindolin-4-yl)methyl)piperazin-1-yl)-5-((R)-3-hydroxypyrrolidin-1-yl)oxazolo[4,5-b]pyridin-6-yl)-2-(2-methylpyridin-4-yl)oxazole-4-carboxamide] the inhibition at 0.01 µM (MV-4-11; Table I-6, IRAK4 inhibitors) was 5 to 10%, the inhibition at 0.5 µM (MV-4-11; Table I-6, IRAK4 inhibitors) was 70 to 80% and the inhibition at 0.5 µM [1] was 40 to 53%. The inhibition at 2 µM [1] was 60 to 80%.

With `Cc1cc(S(=O)(=O)N2CCN(Cc3cccc4c3CN(C3CCC(=O)NC3=O)C4=S)CC2)ccc1Nc1ncc(Br)c(Nc2cccc(F)c2C(N)=O)n1` (centres unmarked) [GT-08793, 2-((5-bromo-2-((4-((4-((2-(2,6-dioxopiperidin-3-yl)-1-thioxoisoindolin-4-yl)methyl)piperazin-1-yl)sulfonyl)-2-methylphenyl)amino)pyrimidin-4-yl)amino)-6-fluorobenzamide] the inhibition at 0.01 µM (MV-4-11; Table I-13, CDK2 inhibitors) was 30 to 40% and the inhibition at 0.5 µM (MV-4-11; Table I-13, CDK2 inhibitors) was 60 to 70%.

Compound `CC1(C)CCC(c2ccc(Cl)cc2)=C(CN2CCN(c3ccc(C(=O)NS(=O)(=O)c4ccc(N[C@H](CCN5CC6CCC(C5)N6Cc5ccc6c(c5)CN(C5CCC(=O)NC5=O)C6=S)CSc5ccccc5)c(S(=O)(=O)C(F)(F)F)c4)cc3)CC2)C1` (stereo partly drawn) [GT-09416, 4-(4-((4'-chloro-4,4-dimethyl-3,4,5,6-tetrahydro-[1,1'-biphenyl]-2-yl)methyl)piperazin-1-yl)-N-((4-(((2R)-4-(8-((2-(2,6-dioxopiperidin-3-yl)-1-thioxoisoindolin-5-yl)methyl)-3,8-diazabicyclo[3.2.1]octan-3-yl)-1-(phenylthio)butan-2-yl)amino)-3-((trifluoromethyl)sulfonyl)phenyl)sulfonyl)benzamide] has an inhibition at 0.5 µM [1] of 80 to 100% and an inhibition at 2 µM [1] of 80 to 100%.

For `O=C1CCC(N2Cc3cc(CN4CCN(c5ccc(-c6cc(F)c7c(c6)C(=O)N(C(C(=O)Nc6nccs6)c6ncn8c6CCC8)C7)cc5)CC4)ccc3C2=S)C(=O)N1` (centres unmarked) [GT-09423, 2-(6,7-dihydro-5H-pyrrolo[1,2-c]imidazol-1-yl)-2-(6-(4-(4-((2-(2,6-dioxopiperidin-3-yl)-1-thioxoisoindolin-5-yl)methyl)piperazin-1-yl)phenyl)-4-fluoro-1-oxoisoindolin-2-yl)-N-(thiazol-2-yl)acetamide], the inhibition at 0.5 µM [1] was 53 to 60% and the inhibition at 2 µM [1] was 60 to 80%.

`CCc1cc2c(cc1N1CCN(Cc3ccc4c(c3)CN(C3CCC(=O)NC3=O)C4=S)CC1)C(C)(C)c1[nH]c3cc(C#N)ccc3c1C2=O` (centres unmarked) [GT-09424, 8-(4-((2-(2,6-dioxopiperidin-3-yl)-1-thioxoisoindolin-5-yl)methyl)piperazin-1-yl)-9-ethyl-6,6-dimethyl-11-oxo-6,11-dihydro-5H-benzo[b]carbazole-3-carbonitrile] showed an inhibition at 0.5 µM [1] of 40 to 53% and an inhibition at 2 µM [1] of 60 to 80%.

`CN(C)C(=O)c1cc2cnc(Nc3ccc(N4CCN(Cc5ccc6c(c5)C(=S)N(C5CCC(=O)NC5=O)C6)CC4)cn3)nc2n1C1CCCC1` (centres unmarked) [GT-09427, 7-cyclopentyl-2-((5-(4-((2-(2,6-dioxopiperidin-3-yl)-3-thioxoisoindolin-5-yl)methyl)piperazin-1-yl)pyridin-2-yl)amino)-N,N-dimethyl-7H-pyrrolo[2,3-d]pyrimidine-6-carboxamide] gave an inhibition at 0.5 µM [1] of 60 to 80% and an inhibition at 2 µM [1] of 80 to 100%.

`CC(=O)c1c(C)c2cnc(Nc3ccc(N4CCN(Cc5ccc6c(c5)C(=S)N(C5CCC(=O)NC5=O)C6)CC4)cn3)nc2n(C2CCCC2)c1=O` (centres unmarked) [GT-09428, 3-(6-((4-(6-((6-acetyl-8-cyclopentyl-5-methyl-7-oxo-7,8-dihydropyrido[2,3-d]pyrimidin-2-yl)amino)pyridin-3-yl)piperazin-1-yl)methyl)-1-thioxoisoindolin-2-yl)piperidine-2,6-dione] was tested, and the inhibition at 0.5 µM [1] was 40 to 53% and the inhibition at 2 µM [1] was 60 to 80%.

`O=C1CCC(N2Cc3cc(CN4CCC(NC(=O)c5n[nH]cc5NC(=O)c5c(Cl)cccc5Cl)CC4)ccc3C2=S)C(=O)N1` (centres unmarked) [GT-09434, 4-(2,6-dichlorobenzamido)-N-(1-((2-(2,6-dioxopiperidin-3-yl)-1-thioxoisoindolin-5-yl)methyl)piperidin-4-yl)-1H-pyrazole-3-carboxamide] gave an inhibition at 0.5 µM [1] of 53 to 60% and an inhibition at 2 µM [1] of 80 to 100%.

`CN(c1nccnc1CNc1nc(Nc2ccc(N3CCN(Cc4ccc5c(c4)C(=S)N(C4CCC(=O)NC4=O)C5)CC3)cc2)ncc1C(F)(F)F)S(C)(=O)=O` (centres unmarked) [GT-09437, N-(3-(((2-((4-(4-((2-(2,6-dioxopiperidin-3-yl)-3-thioxoisoindolin-5-yl)methyl)piperazin-1-yl)phenyl)amino)-5-(trifluoromethyl)pyrimidin-4-yl)amino)methyl)pyrazin-2-yl)-N-methylmethanesulfonamide] was tested, and the inhibition at 0.5 µM [1] was 40 to 53% and the inhibition at 2 µM [1] was 60 to 80%.

In the case of `CN(c1cccc(CNc2nc(Nc3ccc(N4CCN(Cc5ccc6c(c5)C(=S)N(C5CCC(=O)NC5=O)C6)CC4)cc3)ncc2C(F)(F)F)c1)S(C)(=O)=O` (centres unmarked) [GT-09438, N-(3-(((2-((4-(4-((2-(2,6-dioxopiperidin-3-yl)-3-thioxoisoindolin-5-yl)methyl)piperazin-1-yl)phenyl)amino)-5-(trifluoromethyl)pyrimidin-4-yl)amino)methyl)phenyl)-N-methylmethanesulfonamide], the inhibition at 0.5 µM [1] is reported as 53 to 60% and the inhibition at 2 µM [1] is reported as 60 to 80%.

`Nc1ncnc2c1c(-c1ccc(Oc3ccccc3)cc1)nn2C1CCN(Cc2ccc3c(c2)C(=S)N(C2CCC(=O)NC2=O)C3)CC1` (centres unmarked) [GT-09441, 3-(6-((4-(4-amino-3-(4-phenoxyphenyl)-1H-pyrazolo[3,4-d]pyrimidin-1-yl)piperidin-1-yl)methyl)-1-thioxoisoindolin-2-yl)piperidine-2,6-dione] was tested, and the inhibition at 0.5 µM [1] was 40 to 53% and the inhibition at 2 µM [1] was 80 to 100%.

In the case of `Cc1cc(-c2nc(C(=O)Nc3cc4oc(N5CCOCC5)nc4nc3N3CC[C@@H](O)C3)co2)ccn1` [emavusertib, Emavusertib, reference compound], the inhibition at 0.5 µM [1] is reported as 0 to 10% and the inhibition at 2 µM [1] is reported as 0 to 10%.
